# Key:
# [1] = test system: rhythmic bladder voiding contractions; assay: Volume-induced rhythmic bladder voiding contractions in anaesthetized rats; assay type: in vivo, rat; conditions: for Bladder quiescence (min ± S.E.): 60 min observation; for ED10 min (dose inducing a 10 min absence of bladder contractions) / Potency in inhibiting bladder voiding contractions (ED10min) compared with morphine: i.v.; for ED10 min (dose inducing a 10 min absence of bladder contractions): linear regression analysis; for Potency in inhibiting bladder voiding contractions (ED10min) compared with morphine: relative to morphine
# Description: In this method, the urinary bladder is catheterized through the external urethra with a polyethylene tubing filled with physiological saline. The external urethra is then ligated and connected to a pressure recording device. […] Test compounds are then administered intravenously and their effect evaluated for the following 60 min.
# The animals were housed with free access to food and water and maintained on a 12 h alternating light-dark cycle at 22-24° C. for at least one week, except during the experiment. […] The catheter was then tied in place with a ligature around the external urethral orifice and connected to a conventional pressure transducer (Statham P23 ID/P23 XL). […] The bladder was then filled via the recording catheter with incremental volumes of warm (37° C.) saline until reflex bladder voiding contractions occurred (usually upon addition of 0.8-1.5 ml saline).
# Bioactivity was assessed in individual animals (using 6-10 rats per dose) by measuring the duration of bladder quiescence (i.e., the duration of time during which no contractions occurred) over a 60 min period.
# detrusor instability = conditions: cited from earlier work; for Effect in patients with detrusor instability: double-blind controlled studies; for Gastrointestinal side effects: patients with detrusor instability
# [2] = test system: bladder contractions elicited by arachidonic acid; conditions: arachidonic acid on serosal surface of bladder; cited from earlier work
# bladder reflexes = conditions: following surgery or experimentally-induced inflammation; cited from earlier work
# [3] = test system: isolated rat bladder strips; conditions: 1×10^−4M, 40 mM potassium; cited from earlier work
smiles,measurement,setting,value
COc1ccc2c(c1)c(CC(=O)O)c(C)n2C(=O)c1ccc(Cl)cc1 [Indomethacin],Bladder quiescence (min ± S.E.),[1]; 0.3 mg/kg i.v.,4.39 ± 1.08 min
same,Bladder quiescence (min ± S.E.),[1]; 1.0 mg/kg i.v.,7.91 ± 1.79 min
same,Bladder quiescence (min ± S.E.),[1]; 3.0 mg/kg i.v.,35.00 ± 5.78 min
same,ED10 min (dose inducing a 10 min absence of bladder contractions),[1],ED10 min = 0.652 mg/kg
same,Effect in patients with detrusor instability,detrusor instability,favorable effects
same,Gastrointestinal side effects,detrusor instability,high incidence of gastrointestinal side effects
Cc1ccc(-c2cc(C(F)(F)F)nn2-c2ccc(S(N)(=O)=O)cc2)cc1 [Compound B],Bladder quiescence (min ± S.E.),[1]; 0.01 mg/kg i.v.,4.05 ± 0.68 min
same,Bladder quiescence (min ± S.E.),[1]; 0.1 mg/kg i.v.,10.53 ± 2.04 min
same,Bladder quiescence (min ± S.E.),[1]; 1.0 mg/kg i.v.,28.35 ± 5.19 min
same,ED10 min (dose inducing a 10 min absence of bladder contractions),[1],ED10 min = 0.044 mg/kg
same,Potency in inhibiting bladder voiding contractions (ED10min) compared with morphine,[1],similar
C[C@H](C(=O)O)c1cccc(C(=O)c2ccccc2)c1 [dexketoprofen],Effect on bladder contractions elicited by arachidonic acid,[2],blocked
CN1CC[C@]23c4c5ccc(O)c4O[C@H]2[C@@H](O)C=C[C@H]3[C@H]1C5 [Morphine],Bladder quiescence (min ± S.E.),[1]; 0.01 mg/kg i.v.,2.76 ± 0.93 min
same,Bladder quiescence (min ± S.E.),[1]; 0.03 mg/kg i.v.,6.89 ± 2.11 min
same,Bladder quiescence (min ± S.E.),[1]; 0.1 mg/kg i.v.,13.83 ± 2.40 min
same,Bladder quiescence (min ± S.E.),[1]; 0.3 mg/kg i.v.,18.17 ± 3.60 min
same,ED10 min (dose inducing a 10 min absence of bladder contractions),[1],ED10 min = 0.050 mg/kg
CS(=O)(=O)c1ccc(C2=C(c3ccccc3)C(=O)OC2)cc1 [Compound C],Bladder quiescence (min ± S.E.),[1]; 0.03 mg/kg i.v.,3.75 ± 0.96 min
same,Bladder quiescence (min ± S.E.),[1]; 0.1 mg/kg i.v.,4.85 ± 1.80 min
same,Bladder quiescence (min ± S.E.),[1]; 0.3 mg/kg i.v.,16.44 ± 6.13 min
same,ED10 min (dose inducing a 10 min absence of bladder contractions),[1],ED10 min = 0.135 mg/kg
same,Potency in inhibiting bladder voiding contractions (ED10min) compared with morphine,[1],slightly lower
CS(=O)(=O)Nc1ccc([N+](=O)[O-])cc1OC1CCCCC1 [NS-398],Effect on bladder reflexes,bladder reflexes,normalized bladder reflexes
CS(=O)(=O)Nc1ccc([N+](=O)[O-])cc1Oc1ccccc1 [nimesulide],Inhibition of contractility,[3],42%
CC(C(=O)O)c1ccc(-c2ccccc2)c(F)c1 (centres unmarked) [flurbiprofen],Effect in patients with detrusor instability,detrusor instability,favorable effects
same,Gastrointestinal side effects,detrusor instability,high incidence of gastrointestinal side effects
